Data from ChEMBL document CHEMBL2169775, “Tacrine-ferulic acid-nitric oxide (NO) donor trihybrids as potent, multifunctional acetyl- and butyrylcholinesterase inhibitors” (J Med Chem, 2012).
Activity calls are given as the source filed them. The calls are words filed in the database; no cut-off is given here.

Key:
[1] = biological target: Cholinesterase (Equus caballus, UniProt P81908)
Description: Inhibition of equine serum BuChE using butyrylthiocholine iodide as substrate after 5 mins by Ellman's method

[2] = biological target: Acetylcholinesterase (Electrophorus electricus, UniProt O42275)
Description: Inhibition of eel AChE using acetylthiocholine iodide as substrate after 5 mins by Ellman's method

[3] = test system: Radical scavenging activity; assay: Antioxidant activity assessed as DPPH free radical scavenging activity at 2 mM relative to ferulic acid; format: functional
[4] = test system: Aorta; assay: tissue or blood; conditions: Rattus norvegicus
Description: Vasorelaxant activity in rat aortic rings assessed as reduction of norepinephrine-induced contraction

[5] = Induction of NO release in phosphate buffer assessed as inorganic nitrite level at pH 7.4 at 10^-4 M measured at 10 mins by Griess assay in presence of L-cysteine; format: physicochemical; conditions: pH 7.4, 10 min, 100 µM
[6] = Induction of NO release in phosphate buffer assessed as inorganic nitrite level at pH 7.4 at 10^-4 M measured at 30 mins by Griess assay in presence of L-cysteine; format: physicochemical; conditions: pH 7.4, 0.5 h, 100 µM
[7] = biological target: Cholinesterase (Equus caballus) (UniProt P81908); assay: Competitive inhibition of equine serum BuChE using butyrylthiocholine iodide as substrate at 1 to 10 nM after 4 mins by Ellman's method
[8] = biological target: Acetylcholinesterase (Electrophorus electricus) (UniProt O42275); assay: Mixed inhibition of eel AChE using acetylthiocholine iodide as substrate at 1 to 10 nM after 4 mins by Lineweaver-Burk plot analysis
Sequence of Acetylcholinesterase (Electrophorus electricus) (O42275 24-633 limits assumed): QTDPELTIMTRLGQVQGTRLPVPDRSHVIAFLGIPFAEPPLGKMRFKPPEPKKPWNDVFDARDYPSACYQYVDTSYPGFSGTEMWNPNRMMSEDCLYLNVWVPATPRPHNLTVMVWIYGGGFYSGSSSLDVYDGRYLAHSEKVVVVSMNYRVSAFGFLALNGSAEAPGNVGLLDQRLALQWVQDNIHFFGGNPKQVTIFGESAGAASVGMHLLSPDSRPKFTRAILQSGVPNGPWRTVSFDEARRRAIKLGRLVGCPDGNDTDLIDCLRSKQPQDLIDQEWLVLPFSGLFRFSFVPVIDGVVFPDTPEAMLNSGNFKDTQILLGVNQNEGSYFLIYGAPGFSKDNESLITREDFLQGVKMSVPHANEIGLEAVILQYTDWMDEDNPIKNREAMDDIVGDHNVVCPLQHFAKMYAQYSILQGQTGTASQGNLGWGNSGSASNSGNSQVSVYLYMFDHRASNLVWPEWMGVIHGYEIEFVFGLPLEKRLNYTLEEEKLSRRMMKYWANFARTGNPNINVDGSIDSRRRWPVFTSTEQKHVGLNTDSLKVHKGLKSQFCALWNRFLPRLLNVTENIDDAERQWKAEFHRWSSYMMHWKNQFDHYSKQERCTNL

Sequence of Acetylcholinesterase (O42275 whole entry): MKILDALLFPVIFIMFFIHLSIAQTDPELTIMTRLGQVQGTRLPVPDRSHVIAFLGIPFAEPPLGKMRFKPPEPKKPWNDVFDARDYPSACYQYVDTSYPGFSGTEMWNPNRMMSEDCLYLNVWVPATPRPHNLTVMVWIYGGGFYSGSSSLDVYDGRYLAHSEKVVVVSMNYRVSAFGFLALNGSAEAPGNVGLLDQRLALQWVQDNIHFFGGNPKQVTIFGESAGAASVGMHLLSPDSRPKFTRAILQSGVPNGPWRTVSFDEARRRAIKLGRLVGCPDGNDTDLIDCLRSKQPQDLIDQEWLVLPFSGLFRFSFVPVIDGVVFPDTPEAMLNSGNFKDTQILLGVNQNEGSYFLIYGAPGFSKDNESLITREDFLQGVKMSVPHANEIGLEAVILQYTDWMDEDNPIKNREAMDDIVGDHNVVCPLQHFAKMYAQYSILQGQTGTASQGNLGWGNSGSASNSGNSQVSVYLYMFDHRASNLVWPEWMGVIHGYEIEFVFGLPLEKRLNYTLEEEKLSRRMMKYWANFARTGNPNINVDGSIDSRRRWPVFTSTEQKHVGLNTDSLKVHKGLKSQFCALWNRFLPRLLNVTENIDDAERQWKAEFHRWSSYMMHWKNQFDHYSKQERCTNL
Sequence of Cholinesterase (P81908 whole entry): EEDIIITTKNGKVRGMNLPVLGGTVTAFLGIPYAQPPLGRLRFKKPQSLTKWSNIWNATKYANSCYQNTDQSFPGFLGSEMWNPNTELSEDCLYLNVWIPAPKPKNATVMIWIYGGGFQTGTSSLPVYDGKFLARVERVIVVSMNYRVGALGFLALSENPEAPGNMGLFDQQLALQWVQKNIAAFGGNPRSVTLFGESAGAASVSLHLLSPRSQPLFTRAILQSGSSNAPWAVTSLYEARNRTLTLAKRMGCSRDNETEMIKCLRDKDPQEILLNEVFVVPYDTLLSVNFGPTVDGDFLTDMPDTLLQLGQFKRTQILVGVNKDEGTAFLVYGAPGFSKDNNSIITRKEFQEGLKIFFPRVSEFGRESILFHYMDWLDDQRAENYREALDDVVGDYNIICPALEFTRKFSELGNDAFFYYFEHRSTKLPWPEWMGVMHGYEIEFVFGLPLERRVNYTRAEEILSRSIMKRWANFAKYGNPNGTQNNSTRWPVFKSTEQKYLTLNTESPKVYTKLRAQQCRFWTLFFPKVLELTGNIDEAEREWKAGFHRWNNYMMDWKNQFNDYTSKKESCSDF
Sequence of Cholinesterase (Equus caballus) (P81908 whole entry): as above

SMILES	IC50 [1] [µM]	IC50 [2] [µM]	Activity [3] [%]	EC50 [4] [µM]	Activity [5] [µg/mL]	Activity [6] [µg/mL]	inhibition [7]	inhibition [8]
NCCNc1c2c(nc3ccccc13)CCCC2	0.0309	0.0714						
COc1cc(/C=C/C(=O)NCCCNc2c3c(nc4ccccc24)CCCC3)ccc1OCCCCO[N+](=O)[O-]	0.0062	0.0036	< 1					
COc1cc(/C=C/C(=O)NCCCCCCNc2c3c(nc4ccccc24)CCCC3)ccc1OCCCCCCO[N+](=O)[O-]	0.002	0.0048	< 1					
COc1cc(/C=C/C(=O)NCCCCCCNc2c3c(nc4ccccc24)CCCC3)ccc1OCCO[N+](=O)[O-]	0.0052	0.0083	< 1					
COc1cc(/C=C/C(=O)NCCNc2c3c(nc4ccccc24)CCCC3)ccc1O	0.0375	0.062						
COc1cc(/C=C/C(=O)NCCNc2c3c(nc4ccccc24)CCCC3)ccc1OCCCCO[N+](=O)[O-]	0.0076	0.0271	< 1					
COc1cc(/C=C/C(=O)NCCCNc2c3c(nc4ccccc24)CCCC3)ccc1OCCO[N+](=O)[O-]	0.0249	0.0144	< 1					
COc1cc(/C=C/C(=O)O)ccc1OCCCCO[N+](=O)[O-]	> 10	> 10						
COc1cc(/C=C/C(=O)NCCCCCCNc2c3c(nc4ccccc24)CCCC3)ccc1OCCCCO[N+](=O)[O-]	0.0014	0.0037	< 1					
NCCCCCCCCNc1c2c(nc3ccccc13)CCCC2	0.0028	0.0029						
COc1cc(/C=C/C(=O)NCCCCCCNc2c3c(nc4ccccc24)CCCC3)ccc1OCCCO[N+](=O)[O-]	0.0056	0.0044	< 1					
COc1cc(/C=C/C(=O)NCCNc2c3c(nc4ccccc24)CCCC3)ccc1OCCO[N+](=O)[O-]	0.0105	0.0172	< 1	48.8				
COc1cc(/C=C/C(=O)NCCCCCCNc2c3c(nc4ccccc24)CCCC3)ccc1O	0.0263	0.0127	64.7					
COc1cc(/C=C/C(=O)NCCCCNc2c3c(nc4ccccc24)CCCC3)ccc1OCCCCO[N+](=O)[O-]	0.0047	0.0195	< 1					
COc1cc(/C=C/C(=O)O)ccc1OCCO[N+](=O)[O-]	> 10	> 10						
COc1cc(/C=C/C(=O)NCCCCCCCCNc2c3c(nc4ccccc24)CCCC3)ccc1OCCCCCCO[N+](=O)[O-]	0.0019	0.0108	< 1					
NCCCCCCNc1c2c(nc3ccccc13)CCCC2	0.0066	0.0237						
O=[N+]([O-])O[C@H]1CO[C@H]2[C@@H]1OC[C@H]2O[N+](=O)[O-] [ISOSORBIDE DINITRATE]				25.2				

SMILES	IC50 [1] [µM]	IC50 [2] [µM]	Activity [3] [%]	EC50 [4] [µM]	Activity [5] [µg/mL]	Activity [6] [µg/mL]	inhibition [7]	inhibition [8]
COc1cc(/C=C/C(=O)NCCCCCCCCNc2c3c(nc4ccccc24)CCCC3)ccc1O	0.0274	0.0169						
COc1cc(/C=C/C(=O)NCCCCNc2c3c(nc4ccccc24)CCCC3)ccc1OCCCO[N+](=O)[O-]	0.0236	0.0443	< 1					
COc1cc(/C=C/C(=O)NCCCNc2c3c(nc4ccccc24)CCCC3)ccc1OCCCCCCO[N+](=O)[O-]	0.0193	0.0218	< 1					
COc1cc(/C=C/C(=O)O)ccc1OCCCO[N+](=O)[O-]	> 10	> 10						
COc1cc(/C=C/C(=O)NCCCCCCCCNc2c3c(nc4ccccc24)CCCC3)ccc1OCCO[N+](=O)[O-]	0.0016	0.0055	< 1	234	0.145	0.275		
COc1cc(/C=C/C(=O)O)ccc1OCCCCCCO[N+](=O)[O-]	> 10	> 10						
COc1cc(/C=C/C(=O)NCCCCNc2c3c(nc4ccccc24)CCCC3)ccc1OCCCCCCO[N+](=O)[O-]	0.0117	0.0279	< 1					
COc1cc(/C=C/C(=O)NCCNc2c3c(nc4ccccc24)CCCC3)ccc1OCCCO[N+](=O)[O-]	0.0084	0.0199	< 1					
COc1cc(/C=C/C(=O)NCCCCCCCCNc2c3c(nc4ccccc24)CCCC3)ccc1OCCCCO[N+](=O)[O-]	0.0018	0.0094	< 1					
NCCCNc1c2c(nc3ccccc13)CCCC2	0.0197	0.0795						
CCCOc1ccc(/C=C/C(=O)NCCCNc2c3c(nc4ccccc24)CCCC3)cc1OC	0.0403	0.0698		838				
COc1cc(/C=C/C(=O)NCCCNc2c3c(nc4ccccc24)CCCC3)ccc1O	0.0311	0.0567		2050				
COc1cc(/C=C/C(=O)NCCCCNc2c3c(nc4ccccc24)CCCC3)ccc1OCCO[N+](=O)[O-]	0.0202	0.0221	< 1					
COc1cc(/C=C/C(=O)NCCCNc2c3c(nc4ccccc24)CCCC3)ccc1OCCCO[N+](=O)[O-]	0.0177	0.0109	< 1	34.3	0.241	0.305	Active	Active
COc1cc(/C=C/C(=O)NCCCCCCCCNc2c3c(nc4ccccc24)CCCC3)ccc1OCCCO[N+](=O)[O-]	0.001	0.0101	< 1					
COc1cc(/C=C/C(=O)NCCNc2c3c(nc4ccccc24)CCCC3)ccc1OCCCCCCO[N+](=O)[O-]	0.0218	0.0406	< 1					
COc1cc(/C=C/C(=O)NCCCCNc2c3c(nc4ccccc24)CCCC3)ccc1O	0.0098	0.0111						
NCCCCNc1c2c(nc3ccccc13)CCCC2	0.0229	0.0393						
